These are literature values, as cited in US11020355B2, “Method of encapsulating cannabinoids in phospholipid carriers” (NuVessl, Inc., priority 2018, dated 2021).

Read-outs that look alike come from different tables or passages of the source.

On the set-up of data set [1]: AUC (0-10.5 hours): unit not given beside the values. Conditions: oromucosal, historic data.
The conditions of data set [2]: oral administration.

In general, Tmax refers to the time at which the peak concentration occurs. In the case of `C=C(C)[C@@H]1CCC(C)=C[C@H]1c1c(O)cc(CCCCC)cc1O` [CBD, cannabidiol], the C max in data set [1] (10 mg CBD) is 3.0 microgram per liter (nanogram per mL). Moreover, the C max in data set [1] (15 mg CBD) is listed as 3.7 microgram per liter (nanogram per mL). In addition, in data set [1] (5-15 mg CBD), the “AUC (0-10.5 hours)” value was 4.1-12.6 and the Tmax is 3.6 to 4.5 h. Moreover, in data set [2], the bioavailability was 6%-15%.
